How the values were obtained:
[1] = molecular target: 5-hydroxytryptamine receptor 1A (Homo sapiens) (UniProt P08908); details: Compound concentration 10.0 uM
[2] = molecular target: Beta-1 adrenergic receptor (Homo sapiens) (UniProt P08588); details: Compound concentration 10.0 uM
[3] = molecular target: D(2) dopamine receptor (Homo sapiens) (UniProt P14416); details: Compound concentration 10.0 uM
[4] = molecular target: Androgen receptor (Rattus norvegicus) (UniProt P15207); details: Compound concentration 10.0 uM
[5] = molecular target: Nitric oxide synthase 3 (Rattus norvegicus) (UniProt Q62600); details: Compound concentration 10.0 uM
Chain of Nitric oxide synthase 3 (Rattus norvegicus) (Q62600 whole entry): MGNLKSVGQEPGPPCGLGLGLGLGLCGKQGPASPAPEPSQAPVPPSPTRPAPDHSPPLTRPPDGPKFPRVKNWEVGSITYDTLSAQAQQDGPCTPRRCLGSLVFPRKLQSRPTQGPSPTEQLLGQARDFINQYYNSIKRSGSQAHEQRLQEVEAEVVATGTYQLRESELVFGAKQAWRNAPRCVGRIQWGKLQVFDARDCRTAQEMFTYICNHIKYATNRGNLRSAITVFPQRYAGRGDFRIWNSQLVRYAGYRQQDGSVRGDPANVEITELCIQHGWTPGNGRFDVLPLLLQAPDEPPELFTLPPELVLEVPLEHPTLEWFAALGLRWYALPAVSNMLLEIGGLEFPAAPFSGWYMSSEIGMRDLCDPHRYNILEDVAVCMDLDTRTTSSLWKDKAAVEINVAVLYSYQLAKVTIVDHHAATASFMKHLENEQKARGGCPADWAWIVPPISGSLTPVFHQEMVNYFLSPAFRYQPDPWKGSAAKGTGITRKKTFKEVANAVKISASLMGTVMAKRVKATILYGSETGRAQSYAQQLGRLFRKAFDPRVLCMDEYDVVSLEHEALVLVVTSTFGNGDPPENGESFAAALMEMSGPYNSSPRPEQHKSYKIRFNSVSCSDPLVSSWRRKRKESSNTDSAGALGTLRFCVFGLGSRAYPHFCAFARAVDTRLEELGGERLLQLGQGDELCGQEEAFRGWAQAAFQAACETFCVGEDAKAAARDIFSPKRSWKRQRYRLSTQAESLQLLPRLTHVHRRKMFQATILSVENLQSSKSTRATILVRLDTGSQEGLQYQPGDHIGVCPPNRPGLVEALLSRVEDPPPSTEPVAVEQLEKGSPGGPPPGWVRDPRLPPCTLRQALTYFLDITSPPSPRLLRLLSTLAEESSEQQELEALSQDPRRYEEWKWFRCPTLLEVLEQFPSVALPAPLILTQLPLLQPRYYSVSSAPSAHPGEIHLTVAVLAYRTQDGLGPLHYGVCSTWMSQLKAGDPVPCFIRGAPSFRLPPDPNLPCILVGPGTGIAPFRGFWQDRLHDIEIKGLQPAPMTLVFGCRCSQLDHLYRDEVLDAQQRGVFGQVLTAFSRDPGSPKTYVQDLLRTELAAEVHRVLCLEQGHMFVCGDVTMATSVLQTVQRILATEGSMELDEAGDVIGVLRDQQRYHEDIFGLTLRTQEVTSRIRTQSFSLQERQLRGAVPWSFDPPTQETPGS

[6] = molecular target: D(1A) dopamine receptor (Homo sapiens) (UniProt P21728); details: Compound concentration 10.0 uM
[7] = molecular target: Polyunsaturated fatty acid 5-lipoxygenase (Homo sapiens) (UniProt P09917); details: Compound concentration 10.0 uM
[8] = molecular target: T1, 5-hydroxytryptamine receptor 3A (Homo sapiens) (UniProt P46098); details: Compound concentration 10.0 uM
T1 sequence (whole entry): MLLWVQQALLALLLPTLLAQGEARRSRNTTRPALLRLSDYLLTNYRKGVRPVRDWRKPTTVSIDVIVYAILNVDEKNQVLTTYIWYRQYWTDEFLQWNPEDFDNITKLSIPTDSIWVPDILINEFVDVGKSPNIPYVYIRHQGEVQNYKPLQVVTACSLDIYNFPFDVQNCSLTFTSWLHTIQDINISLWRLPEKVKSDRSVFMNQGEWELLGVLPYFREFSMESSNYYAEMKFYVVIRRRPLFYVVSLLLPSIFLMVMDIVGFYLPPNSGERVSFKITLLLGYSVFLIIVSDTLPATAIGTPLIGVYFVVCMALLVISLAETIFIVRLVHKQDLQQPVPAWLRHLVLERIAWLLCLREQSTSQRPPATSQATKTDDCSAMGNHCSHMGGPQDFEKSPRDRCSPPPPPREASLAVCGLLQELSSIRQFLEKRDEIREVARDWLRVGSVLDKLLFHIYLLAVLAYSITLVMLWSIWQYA

[9] = molecular target: Carbonic anhydrase 6 (Homo sapiens) (UniProt P23280); details: Compound concentration 10.0 uM
Chain of Carbonic anhydrase 6 (Homo sapiens) (P23280 whole entry): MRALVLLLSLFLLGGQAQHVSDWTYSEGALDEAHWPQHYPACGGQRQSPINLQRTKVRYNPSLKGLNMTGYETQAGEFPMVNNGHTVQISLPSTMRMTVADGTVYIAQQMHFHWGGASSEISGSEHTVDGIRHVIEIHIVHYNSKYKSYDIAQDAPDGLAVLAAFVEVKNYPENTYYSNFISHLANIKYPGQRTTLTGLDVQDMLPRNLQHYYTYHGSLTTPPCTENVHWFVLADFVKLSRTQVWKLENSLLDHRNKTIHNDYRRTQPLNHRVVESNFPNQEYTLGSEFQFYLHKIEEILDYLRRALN

[10] = molecular target: 5-hydroxytryptamine receptor 5A (Homo sapiens) (UniProt P47898); details: Compound concentration 10.0 uM
[11] = molecular target: Thromboxane-A synthase (Homo sapiens) (UniProt P24557); details: Compound concentration 10.0 uM
[12] = molecular target: Nitric oxide synthase 3 (Bos taurus) (UniProt P29473); details: Compound concentration 10.0 uM
Chain of Nitric oxide synthase 3 (Bos taurus) (P29473 whole entry): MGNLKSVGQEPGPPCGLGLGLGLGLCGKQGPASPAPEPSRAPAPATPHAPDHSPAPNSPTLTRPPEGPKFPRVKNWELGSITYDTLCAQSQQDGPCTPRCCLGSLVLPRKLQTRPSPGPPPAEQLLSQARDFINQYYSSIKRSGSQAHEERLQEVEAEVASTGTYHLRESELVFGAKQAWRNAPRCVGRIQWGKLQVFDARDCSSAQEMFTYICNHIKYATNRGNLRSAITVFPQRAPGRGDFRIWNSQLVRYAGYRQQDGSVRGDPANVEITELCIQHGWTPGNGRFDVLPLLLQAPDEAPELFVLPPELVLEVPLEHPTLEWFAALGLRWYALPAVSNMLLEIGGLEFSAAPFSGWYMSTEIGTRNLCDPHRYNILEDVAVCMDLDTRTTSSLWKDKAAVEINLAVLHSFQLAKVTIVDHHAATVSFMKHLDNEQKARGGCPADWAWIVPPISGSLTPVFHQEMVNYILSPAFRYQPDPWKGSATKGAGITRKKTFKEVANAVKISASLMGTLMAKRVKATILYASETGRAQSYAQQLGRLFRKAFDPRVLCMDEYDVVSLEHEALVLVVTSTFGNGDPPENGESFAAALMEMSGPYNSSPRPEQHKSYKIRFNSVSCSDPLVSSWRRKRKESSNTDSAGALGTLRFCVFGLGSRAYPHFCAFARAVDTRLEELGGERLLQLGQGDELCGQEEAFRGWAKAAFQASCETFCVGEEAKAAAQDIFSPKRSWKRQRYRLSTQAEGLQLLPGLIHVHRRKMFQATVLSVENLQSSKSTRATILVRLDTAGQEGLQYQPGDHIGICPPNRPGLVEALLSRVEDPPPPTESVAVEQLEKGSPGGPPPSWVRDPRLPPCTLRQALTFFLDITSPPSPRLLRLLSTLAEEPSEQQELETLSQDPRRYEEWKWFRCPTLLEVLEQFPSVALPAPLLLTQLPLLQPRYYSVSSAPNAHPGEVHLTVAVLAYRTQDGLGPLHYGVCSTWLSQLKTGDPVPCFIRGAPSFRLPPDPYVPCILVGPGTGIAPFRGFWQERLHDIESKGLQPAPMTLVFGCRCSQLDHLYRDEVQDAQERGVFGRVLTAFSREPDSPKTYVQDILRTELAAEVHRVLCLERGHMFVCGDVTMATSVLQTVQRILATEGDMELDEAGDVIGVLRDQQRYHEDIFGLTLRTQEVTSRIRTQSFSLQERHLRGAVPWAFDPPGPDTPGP

[13] = molecular target: Cathepsin G (Homo sapiens) (UniProt P08311); details: Compound concentration 10.0 uM
Chain of Cathepsin G (Homo sapiens) (P08311 whole entry): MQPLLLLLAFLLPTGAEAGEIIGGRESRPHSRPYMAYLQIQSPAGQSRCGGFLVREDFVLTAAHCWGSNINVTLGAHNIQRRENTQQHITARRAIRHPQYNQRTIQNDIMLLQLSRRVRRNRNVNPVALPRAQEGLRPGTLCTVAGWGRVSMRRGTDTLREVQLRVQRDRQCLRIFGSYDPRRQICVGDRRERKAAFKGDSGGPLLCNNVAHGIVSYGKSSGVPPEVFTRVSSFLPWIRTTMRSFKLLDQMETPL

[14] = molecular target: Alpha-1A adrenergic receptor (Homo sapiens) (UniProt P35348); details: Compound concentration 10.0 uM
[15] = molecular target: Glutamate receptor ionotropic, NMDA 1 (Rattus norvegicus) (UniProt P35439); details: Compound concentration 10.0 uM
[16] = molecular target: Acetylcholinesterase (Homo sapiens) (UniProt P22303); details: Compound concentration 10.0 uM
[17] = molecular target: Gamma-aminobutyric acid receptor subunit beta-1 (Homo sapiens) (UniProt P18505); details: Rattus norvegicus; Compound concentration 10.0 uM
[18] = molecular target: Sigma receptor (Homo sapiens) (UniProt Q99720+Q5BJF2); details: Cavia porcellus; Compound concentration 10.0 uM
Chain of Sigma receptor (Homo sapiens) (Q5BJF2 whole entry, looked up): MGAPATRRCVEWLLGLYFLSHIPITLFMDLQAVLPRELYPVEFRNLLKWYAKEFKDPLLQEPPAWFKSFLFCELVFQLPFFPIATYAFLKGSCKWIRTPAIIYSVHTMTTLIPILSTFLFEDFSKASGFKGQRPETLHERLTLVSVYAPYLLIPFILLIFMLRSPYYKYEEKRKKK
Chain of Sigma receptor (Homo sapiens) (Q99720 whole entry, looked up): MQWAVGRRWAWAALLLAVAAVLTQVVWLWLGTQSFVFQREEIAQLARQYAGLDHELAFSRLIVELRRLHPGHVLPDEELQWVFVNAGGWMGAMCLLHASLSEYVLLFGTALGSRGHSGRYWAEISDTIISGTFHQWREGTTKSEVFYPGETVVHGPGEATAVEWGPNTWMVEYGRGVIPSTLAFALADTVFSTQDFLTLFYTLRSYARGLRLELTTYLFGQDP

[19] = molecular target: Beta-1 adrenergic receptor (Homo sapiens) (UniProt P08588); details: Compound concentration 10.0 uM; remark: listed apart in the source
[20] = molecular target: Platelet-activating factor receptor (Homo sapiens) (UniProt P25105); details: Compound concentration 10.0 uM
Chain of Platelet-activating factor receptor (Homo sapiens) (P25105 whole entry): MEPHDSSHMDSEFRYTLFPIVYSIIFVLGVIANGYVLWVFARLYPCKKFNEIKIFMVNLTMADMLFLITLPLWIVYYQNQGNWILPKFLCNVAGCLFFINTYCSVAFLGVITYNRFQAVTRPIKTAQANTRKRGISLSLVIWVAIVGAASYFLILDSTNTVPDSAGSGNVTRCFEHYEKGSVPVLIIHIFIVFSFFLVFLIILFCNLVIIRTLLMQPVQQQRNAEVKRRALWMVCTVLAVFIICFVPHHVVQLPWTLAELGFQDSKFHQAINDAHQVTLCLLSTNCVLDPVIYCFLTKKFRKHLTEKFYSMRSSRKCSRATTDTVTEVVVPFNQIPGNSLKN

[21] = molecular target: Angiotensin-converting enzyme (Oryctolagus cuniculus) (UniProt P12822); details: Compound concentration 10.0 uM
[22] = molecular target: Adrenergic receptor alpha-1 (Rattus norvegicus) (UniProt P15823+P23944+P43140); details: Compound concentration 10.0 uM
[23] = molecular target: Potassium voltage-gated channel subfamily A member 1 (Rattus norvegicus) (UniProt P10499); details: Compound concentration 10.0 uM
[24] = molecular target: Neutrophil elastase (Homo sapiens) (UniProt P08246); details: Compound concentration 10.0 uM
[25] = molecular target: Interstitial collagenase (Homo sapiens) (UniProt P03956); details: Compound concentration 10.0 uM
[26] = molecular target: Serotonin 2 (5-HT2) receptor (Rattus norvegicus) (UniProt P30994+P08909+P14842); details: Compound concentration 10.0 uM
[27] = molecular target: Sodium-dependent serotonin transporter (Homo sapiens) (UniProt P31645); details: Compound concentration 10.0 uM
[28] = molecular target: 3',5'-cyclic-AMP phosphodiesterase 4A (Homo sapiens) (UniProt P27815); details: Compound concentration 10.0 uM
[29] = molecular target: Sodium/potassium-transporting ATPase subunit alpha-1 (Sus scrofa) (UniProt P05024); details: Compound concentration 10.0 uM
[30] = molecular target: Adrenergic receptor alpha-2 (Rattus norvegicus) (UniProt P22086+P19328+P22909); details: Compound concentration 10.0 uM
[31] = molecular target: Serotonin 1 (5-HT1) receptor (Rattus norvegicus) (UniProt P28564+P30940+P19327+P28565); details: Compound concentration 10.0 uM
[32] = molecular target: D(3) dopamine receptor (Homo sapiens) (UniProt P35462); details: Compound concentration 10.0 uM
[33] = molecular target: Sodium-dependent dopamine transporter (Homo sapiens) (UniProt Q01959); details: Compound concentration 10.0 uM
[34] = molecular target: Type-1 angiotensin II receptor (Oryctolagus cuniculus) (UniProt P34976); details: Homo sapiens; Compound concentration 10.0 uM
Chain of Type-1 angiotensin II receptor (Oryctolagus cuniculus) (P34976 whole entry): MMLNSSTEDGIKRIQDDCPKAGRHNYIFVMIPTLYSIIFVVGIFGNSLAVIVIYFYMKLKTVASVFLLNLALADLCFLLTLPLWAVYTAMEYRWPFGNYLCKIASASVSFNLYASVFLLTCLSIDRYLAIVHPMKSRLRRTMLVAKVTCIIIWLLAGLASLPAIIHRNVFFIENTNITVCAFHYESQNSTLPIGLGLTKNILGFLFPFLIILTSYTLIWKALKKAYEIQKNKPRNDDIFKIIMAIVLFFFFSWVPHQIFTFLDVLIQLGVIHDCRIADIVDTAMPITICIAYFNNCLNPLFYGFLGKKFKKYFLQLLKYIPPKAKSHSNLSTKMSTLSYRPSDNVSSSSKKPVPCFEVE

Chain of Beta-1 adrenergic receptor (Homo sapiens) (P08588 whole entry, looked up): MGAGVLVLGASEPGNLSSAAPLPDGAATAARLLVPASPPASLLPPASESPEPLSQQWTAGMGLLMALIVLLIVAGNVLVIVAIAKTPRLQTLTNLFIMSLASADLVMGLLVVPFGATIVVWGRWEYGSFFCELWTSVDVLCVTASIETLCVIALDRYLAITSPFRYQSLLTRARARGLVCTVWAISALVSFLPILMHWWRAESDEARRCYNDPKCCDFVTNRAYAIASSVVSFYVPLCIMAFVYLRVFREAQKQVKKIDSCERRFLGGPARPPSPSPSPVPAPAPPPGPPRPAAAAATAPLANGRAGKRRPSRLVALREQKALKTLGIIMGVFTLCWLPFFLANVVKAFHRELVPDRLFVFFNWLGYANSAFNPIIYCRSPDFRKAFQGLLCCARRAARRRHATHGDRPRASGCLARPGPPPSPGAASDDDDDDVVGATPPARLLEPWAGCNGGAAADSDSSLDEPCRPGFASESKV
Chain of D(2) dopamine receptor (Homo sapiens) (P14416 whole entry): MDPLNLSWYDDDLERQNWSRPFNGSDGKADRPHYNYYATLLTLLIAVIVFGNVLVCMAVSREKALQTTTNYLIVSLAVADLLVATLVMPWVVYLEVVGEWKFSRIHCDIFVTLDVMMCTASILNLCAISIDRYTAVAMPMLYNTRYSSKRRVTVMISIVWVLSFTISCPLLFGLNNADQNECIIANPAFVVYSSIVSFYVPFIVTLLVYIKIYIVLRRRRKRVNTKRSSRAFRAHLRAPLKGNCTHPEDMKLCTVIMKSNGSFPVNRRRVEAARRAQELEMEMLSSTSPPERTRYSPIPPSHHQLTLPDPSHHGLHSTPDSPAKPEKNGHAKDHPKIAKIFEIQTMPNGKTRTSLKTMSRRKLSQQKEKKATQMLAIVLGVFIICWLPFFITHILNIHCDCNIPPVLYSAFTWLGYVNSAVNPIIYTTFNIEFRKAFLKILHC

CCS(=O)(=O)c1cc2cc(C[C@@](O)(CC(C)(C)c3ccc(F)cc3C(N)=O)C(F)(F)F)[nH]c2cn1
inactive: inhibition [1] -7.37% | inhibition [2] -8.85% | inhibition [3] -8.41%

CCS(=O)(=O)c1cc2cc(C[C@](O)(CC(C)(C)c3ccc(F)cc3C(N)=O)C(F)(F)F)[nH]c2cn1
inactive: residual activity [4] 101% | residual activity [5] 99% | residual activity [6] 92% | residual activity [7] 79% | residual activity [8] 100% | residual activity [9] 85% | inhibition [10] 12.2% | residual activity [11] 93% | residual activity [12] 85% | residual activity [13] 104% | inhibition [14] -0.31% | residual activity [15] 103% | residual activity [16] 91% | residual activity [17] 75% | residual activity [18] 86% | residual activity [19] 90% | residual activity [20] 95% | residual activity [21] 109% | residual activity [22] 89% | residual activity [23] 87% | residual activity [24] 87% | residual activity [25] 94% | residual activity [26] 94% | residual activity [27] 99% | residual activity [28] 81% | residual activity [29] 115% | residual activity [30] 106% | residual activity [31] 118% | residual activity [32] 81% | residual activity [33] 106% | residual activity [34] 96%

Reference: ChEMBL document CHEMBL4507277
